Like-named read-outs stand apart in the source and are kept apart here.
Experiments:
Type in all cases: cell-based
[1] = in vitro; conditions: human
Protocol: (§1) Huh7 hepatoblastoma cells were seeded onto 96-well plates and incubated at 37° C. with 5% CO2 overnight. The plates were seeded at a cell concentration that will yield >70% confluent monolayers in each well after overnight incubation. Eight 3-fold serial dilutions of compounds were diluted in test media (MEM supplemented with 2% FBS and 50 μg/mL gentamicin). The highest test compound concentration was 50 μg/mL. 100 μL of each concentration was added to 5 test wells on the 96-well plate. Of these 5 test wells, 3 wells of each dilution were infected with dengue virus type 2, diluted in test media (approximately 2000 CCID50 per well for an MOI of 0.07). Test medium (100 μL) with no virus was added to 2 wells to represent the uninfected cytotoxicity controls. Six additional infected wells received 100 μL media alone as untreated virus controls. Further, 100 μL of media alone was added to 6 uninfected wells to serve as uninfected, untreated controls. Cultures were incubated at 37° C.+5% CO2 until >80% CPE is observed. After cytopathic effect (CPE) is observed microscopically, 0.011% neutral red dye was added for approximately 2 hours. The neutral red dye was removed and wells were rinsed once with PBS to remove residual, unincorporated dye. A 50:50 Sorensen citrate buffer/ethanol solution was added and incubated at room temperature for >30 minutes with agitation, followed by measurement of neutral red dye using a spectrophotometer at 540 nm. The resulting optical density measurement was converted to percent signal of the infected, untreated cell control normalizing to virus controls. EC50 and CC50 values were determined by linear regression analysis.

[2] = system: dengue virus type 2 in Huh7 hepatoblastoma cells; test: Dengue Virus-2 Huh-7 EC50 (Example W); conditions: MOI of 0.07, CPE, neutral red dye, read-out: Dengue Virus-2 Huh-7 EC50 (nM) (per Ex. W)
Protocol: as §1

[3] = system: Recombinant Respiratory Syncytial virus strain A2 containing the firefly luciferase reporter (RSV-Fluc) in NHBE cells; test: RSV NHBE FLuc EC50 (Example I); conditions: human respiratory syncytial virus, 72 h, read-out: RSV NHBE FLuc EC50 (nM) (per Ex. I)
In short: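 NHBE primary cells (passage 2-4) treated with threefold compound dilutions and infected with RSV A2 firefly-luciferase reporter virus at MOI 0.1; 3 days at 37° C, 5% CO2. ONE-Glo luminescence normalized to uninfected and infected DMSO controls; EC50 from non-linear regression, duplicates with two technical repeats.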

[4] = HCV Replicon 2A CC50, calcein AM (Example Q); conditions: calcein AM fluorescence, read-out: HCV Replicon 2A CC50 (nM) (per Ex. Q)
Protocol: (§2) Compounds were serially diluted in ten steps of 1:3 dilutions in 384-well plates. All serial dilutions were performed in four replicates per compound within the same 384-well plate. An HCV protease inhibitor ITMN-191 at […] was added as a control of 100% inhibition of HCV replication while puromycin at 10 mM was included as a control of 100% cytotoxicity. To each well of a black polystyrene 384-well plate (Greiner Bio-one, Monroe, NC), 90 μL of cell culture medium (without Geneticin) containing 2000 suspended HCV replicon cells was added with a Biotek μFlow workstation. For compound transfer into cell culture plates, 0.4 μL of compound solution from the compound serial dilution plate was transferred to the cell culture plate on a Biomek FX workstation. The DMSO concentration in the final assay wells was 0.44%. The plates were incubated for 3 days at 37° C. with 5% CO2 and 85% humidity. The HCV replicon assay was a multiplex assay, able to assess both cytotoxicity and antireplicon activity from the same well. The CC50 assay was performed first. The media in the 384-well cell culture plate was aspirated, and the wells were washed four times with 100 μL of PBS each, using a Biotek ELX405 plate washer. A volume of 50 μL of a solution containing 400 nM calcein AM (Anaspec, Fremont, CA) in 1×PBS was added to each well of the plate with a Biotek μFlow workstation. The plate was incubated for 30 min at room temperature before the fluorescence signal (excitation 490 nm, emission 520 nm) was measured with a Perkin-Elmer Envision plate reader. The EC50 assay was performed in the same wells as the CC50 assay. The calcein-PBS solution in the 384-well cell culture plate was aspirated with a Biotek ELX405 plate washer. A volume of 20 μL of Dual-Glo luciferase buffer (Promega, Madison, WI) was added to each well of the plate with a Biotek μFlow Workstation. The plate was incubated for 10 min at room temperature. A volume of 20 μL of a solution containing a 1:100 mixture of Dual-Glo Stop & Glo substrate (Promega, Madison, WI) and Dual-Glo Stop & Glo buffer (Promega, Madison, WI) was added to each well of the plate with a Biotek μFlow Workstation. The plate was then incubated at room temperature for 10 min before the luminescence signal was measured with a Perkin-Elmer Envision Plate Reader.

[5] = system: HCV Replicon 2A; test: HCV Replicon 2A EC50 (Example Q); conditions: Hepatitis C virus, 72 h, read-out: HCV Replicon 2A EC50 (nM) (per Ex. Q)
Protocol: as §2

[6] = HCV replicon cells, 3 days, Dual-Glo luciferase

Row | Structure (SMILES) | CC50 [1] | EC50 [2] | EC50 [3] | CC50 at 3 days ([4]; HCV replicon cells (2A)) | EC50 [5, 6] | CC50 at 3 days ([4]; HCV replicon cells) | EC50 [5]
1 | CCCCCCCCCCCCCCCCCCOC[C@H](COP(=O)(O)OC[C@@]1(C#N)O[C@@H](c2ccc3c(N)ncnn23)[C@H](O)[C@@H]1O)OCc1cc(F)cc(C#N)c1 [Compound 1, ((2R,3S,4R,5S)-5-(4-aminopyrrolo[2,1-f][1,2,4]triazin-7-yl)-2-cyano-3,4-dihydroxytetrahydrofuran-2-yl)methyl ((R)-2-((3-cyano-5-fluorobenzyl)oxy)-3-(octadecyloxy)propyl) hydrogen phosphate] | 18 µM | 9700 nM | 104 nM | > 44400 nM | 20600 nM | – | –
2 | CCCCCCCCCCCCCCCCCCOC[C@H](COP(=O)(O)OC[C@@]1(C#N)O[C@@H](c2ccc3c(N)ncnn23)[C@H](O)[C@@H]1O)Oc1cccc(C#N)n1 [Compound 21, ((2R,3S,4R,5S)-5-(4-aminopyrrolo[2,1-f][1,2,4]triazin-7-yl)-2-cyano-3,4-dihydroxytetrahydrofuran-2-yl)methyl ((R)-2-((6-cyanopyridin-2-yl)oxy)-3-(octadecyloxy)propyl) hydrogen phosphate] | – | – | 41 nM | > 44400 nM | 19200 nM | – | –
3 | CCCCCCCCCCCCCCCCCCC[C@H](COP(=O)(O)OC[C@@]1(C#N)O[C@@H](c2ccc3c(N)ncnn23)[C@H](O)[C@@H]1O)OCc1ccc(-n2cncn2)c(C#N)c1 [Compound 30, ((2R,3S,4R)-5-(4-aminopyrrolo[2,1-f][1,2,4]triazin-7-yl)-2-cyano-3,4-dihydroxytetrahydrofuran-2-yl)methyl ((R)-2-((3-cyano-4-(1H-1,2,4-triazol-1-yl)benzyl)oxy)henicosyl) hydrogen phosphate] | 5.9 µM | 1200 nM | – | – | – | 42400 nM | 15800 nM
4 | CCCCCCCCCCCCCCCCCCOC[C@H](COP(=O)(O)OC[C@@]1(C#N)O[C@@H](c2ccc3c(N)ncnn23)[C@H](O)[C@@H]1O)OCc1cccc(C#N)n1 [Compound 68, ((2R,3S,4R)-5-(4-aminopyrrolo[2,1-f][1,2,4]triazin-7-yl)-2-cyano-3,4-dihydroxytetrahydrofuran-2-yl)methyl ((R)-2-((6-cyanopyridin-2-yl)methoxy)-3-(octadecyloxy)propyl) hydrogen phosphate] | – | – | 36 nM | – | – | > 44400 nM | 15200 nM
5 | CCCCCCCCCCCCCCCCCCCC[C@@H](COP(=O)(O)OC[C@@]1(C#N)O[C@@H](c2ccc3c(N)ncnn23)[C@H](O)[C@@H]1O)OCc1cc(F)cc(C#N)c1 [Compound 70, ((2R,3S,4R)-5-(4-aminopyrrolo[2,1-f][1,2,4]triazin-7-yl)-2-cyano-3,4-dihydroxytetrahydrofuran-2-yl)methyl ((S)-2-((3-cyano-5-fluorobenzyl)oxy)docosyl) hydrogen phosphate] | 12 µM | 12000 nM | – | – | – | 42700 nM | 25200 nM
6 | CCCCCCCCCCCCCCCCCCOC[C@@H](COP(=O)(O)OC[C@@]1(C#N)O[C@@H](c2ccc3c(N)ncnn23)[C@H](O)[C@@H]1O)Oc1ccc(C#N)nc1 [Compound 72, ((2R,3S,4R,5S)-5-(4-aminopyrrolo[2,1-f][1,2,4]triazin-7-yl)-2-cyano-3,4-dihydroxytetrahydrofuran-2-yl)methyl ((S)-2-((6-cyanopyridin-3-yl)oxy)-3-(octadecyloxy)propyl) hydrogen phosphate] | 17 µM | 2400 nM | – | – | – | > 44400 nM | > 44400 nM
7 | CCCCCCCCCCCCCCCCC[C@@H](COP(=O)(O)OC[C@@]1(C#N)O[C@@H](c2ccc3c(N)ncnn23)[C@H](O)[C@@H]1O)OCc1cc(F)cc(C#N)c1 [Compound 74, ((2R,3S,4R)-5-(4-aminopyrrolo[2,1-f][1,2,4]triazin-7-yl)-2-cyano-3,4-dihydroxytetrahydrofuran-2-yl)methyl ((S)-2-((3-cyano-5-fluorobenzyl)oxy)nonadecyl) hydrogen phosphate] | 15 µM | 10000 nM | – | – | – | 35800 nM | 22800 nM
8 | CCCCCCCCCCCCCCCC[C@H](COP(=O)(O)OC[C@@]1(C#N)O[C@@H](c2ccc3c(N)ncnn23)[C@H](O)[C@@H]1O)OCc1cc(F)cc(C#N)c1 [Compound 78, ((2R,3S,4R,5S)-5-(4-aminopyrrolo[2,1-f][1,2,4]triazin-7-yl)-2-cyano-3,4-dihydroxytetrahydrofuran-2-yl)methyl ((R)-2-((3-cyano-5-fluorobenzyl)oxy)octadecyl) hydrogen phosphate] | – | – | – | 33800 nM | 18400 nM | – | –
9 | CCCCCCCCCCCCCCCC[C@@H](COP(=O)(O)OC[C@@]1(C#N)O[C@@H](c2ccc3c(N)ncnn23)[C@H](O)[C@@H]1O)OCc1cc(F)cc(C#N)c1 [Compound 79, ((2R,3S,4R,5S)-5-(4-aminopyrrolo[2,1-f][1,2,4]triazin-7-yl)-2-cyano-3,4-dihydroxytetrahydrofuran-2-yl)methyl ((S)-2-((3-cyano-5-fluorobenzyl)oxy)octadecyl) hydrogen phosphate] | – | – | – | 30200 nM | 20000 nM | – | –
10 | CCCCCCCCCCCCCCC[C@H](COP(=O)(O)OC[C@@]1(C#N)O[C@@H](c2ccc3c(N)ncnn23)[C@H](O)[C@@H]1O)OCc1cc(F)cc(C#N)c1 [Compound 80, ((2R,3S,4R,5S)-5-(4-aminopyrrolo[2,1-f][1,2,4]triazin-7-yl)-2-cyano-3,4-dihydroxytetrahydrofuran-2-yl)methyl ((R)-2-((3-cyano-5-fluorobenzyl)oxy)heptadecyl) hydrogen phosphate] | – | – | – | 36900 nM | 21200 nM | – | –
11 | CCCCCCCCCCCCCCCCCC[C@H](COP(=O)(O)OC[C@@]1(C#N)O[C@@H](c2ccc3c(N)ncnn23)[C@H](O)[C@@H]1O)OCc1cc(Cl)cc(C#N)c1 [Compound 81, ((2R,3S,4R,5S)-5-(4-aminopyrrolo[2,1-f][1,2,4]triazin-7-yl)-2-cyano-3,4-dihydroxytetrahydrofuran-2-yl)methyl ((R)-2-((3-chloro-5-cyanobenzyl)oxy)icosyl) hydrogen phosphate] | – | – | – | 37900 nM | 15900 nM | – | –
12 | CCCCCCCCCCCCCCCCCCC[C@H](COP(=O)(O)OC[C@@]1(C#N)O[C@@H](c2ccc3c(N)ncnn23)[C@H](O)[C@@H]1O)OCc1cc(Cl)cc(C#N)c1 [Compound 82, ((2R,3S,4R,5S)-5-(4-aminopyrrolo[2,1-f][1,2,4]triazin-7-yl)-2-cyano-3,4-dihydroxytetrahydrofuran-2-yl)methyl ((R)-2-((3-chloro-5-cyanobenzyl)oxy)henicosyl) hydrogen phosphate] | – | – | – | 37600 nM | 19200 nM | – | –
